{"source": "paper PMC4705464", "about": "“Sensillar expression and responses of olfactory receptors reveal different peripheral coding in two Helicoverpa species using the same pheromone components” (Scientific Reports, 2016)", "assay_in_all_cases": "two-electrode voltage clamp, Xenopus oocytes", "assay_type_in_all_cases": "cell-based", "key": {"HassOR16/Orco": {"target": "T1, HassOR16/Orco (Helicoverpa assulta, UniProt C6K7C1)", "T1 construct": "full ORF in pT7Ts, cRNA co-expressed with Orco in Xenopus oocytes; with Odorant receptor coreceptor", "T1 sequence (C6K7C1 1-422)": "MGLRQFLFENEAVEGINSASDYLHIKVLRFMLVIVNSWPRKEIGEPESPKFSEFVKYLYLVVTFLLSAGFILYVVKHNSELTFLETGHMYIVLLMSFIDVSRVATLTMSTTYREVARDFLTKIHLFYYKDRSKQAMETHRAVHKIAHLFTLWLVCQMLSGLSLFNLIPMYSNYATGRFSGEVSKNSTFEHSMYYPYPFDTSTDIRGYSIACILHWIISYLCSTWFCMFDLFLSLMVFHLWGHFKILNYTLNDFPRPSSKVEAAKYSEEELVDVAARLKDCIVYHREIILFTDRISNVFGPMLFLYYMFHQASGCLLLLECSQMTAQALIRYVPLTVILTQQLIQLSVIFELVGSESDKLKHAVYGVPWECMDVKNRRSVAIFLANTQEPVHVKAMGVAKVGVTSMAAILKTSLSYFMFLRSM", "T1 sequence (A7UGE1 1-473 partner)": "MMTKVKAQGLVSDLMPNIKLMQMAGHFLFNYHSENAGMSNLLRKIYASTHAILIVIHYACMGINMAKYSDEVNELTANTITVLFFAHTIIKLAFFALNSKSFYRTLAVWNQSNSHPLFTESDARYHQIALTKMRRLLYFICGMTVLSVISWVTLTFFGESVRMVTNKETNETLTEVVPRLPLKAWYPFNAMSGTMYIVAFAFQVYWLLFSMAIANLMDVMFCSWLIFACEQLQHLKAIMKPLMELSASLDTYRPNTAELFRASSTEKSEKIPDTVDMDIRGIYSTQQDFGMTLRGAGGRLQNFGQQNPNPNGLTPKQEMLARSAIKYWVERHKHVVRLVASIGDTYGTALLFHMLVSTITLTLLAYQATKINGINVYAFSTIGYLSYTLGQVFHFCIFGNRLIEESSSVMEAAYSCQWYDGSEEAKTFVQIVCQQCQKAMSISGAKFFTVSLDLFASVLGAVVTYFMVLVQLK", "conditions": "agonist; with Orco"}, "HarmOR14b/HarmOrco": {"target": "T2, HarmOR14b/HarmOrco (Helicoverpa armigera, UniProt R4JUU3)", "T2 construct": "gene OR14b; full ORF in pT7Ts, cRNA co-expressed with HarmOrco in Xenopus oocytes; alignment of OR14b orthologues over 440 residues; with Odorant receptor coreceptor", "T2 sequence (R4JUU3 1-440)": "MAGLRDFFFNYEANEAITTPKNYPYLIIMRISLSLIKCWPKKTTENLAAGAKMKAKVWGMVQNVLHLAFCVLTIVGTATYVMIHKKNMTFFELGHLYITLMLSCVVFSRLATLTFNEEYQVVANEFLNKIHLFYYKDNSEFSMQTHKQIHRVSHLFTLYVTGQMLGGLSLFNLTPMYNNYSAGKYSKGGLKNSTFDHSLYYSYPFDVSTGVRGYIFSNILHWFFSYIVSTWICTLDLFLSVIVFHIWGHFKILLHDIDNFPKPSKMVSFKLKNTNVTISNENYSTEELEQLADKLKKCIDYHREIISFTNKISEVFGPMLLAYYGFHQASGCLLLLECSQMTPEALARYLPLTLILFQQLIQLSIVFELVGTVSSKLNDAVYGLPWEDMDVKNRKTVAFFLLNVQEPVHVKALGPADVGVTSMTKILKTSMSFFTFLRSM", "conditions": "agonist; 10^-4 mol/L; with HarmOrco"}, "HassOR6/Orco": {"target": "T3, HassOR6/Orco (Helicoverpa assulta, UniProt R4JLZ7)", "T3 construct": "gene OR6; full ORF in pT7Ts, cRNA co-expressed with Orco in Xenopus oocytes; with Odorant receptor coreceptor", "T3 sequence (R4JLZ7 1-425)": "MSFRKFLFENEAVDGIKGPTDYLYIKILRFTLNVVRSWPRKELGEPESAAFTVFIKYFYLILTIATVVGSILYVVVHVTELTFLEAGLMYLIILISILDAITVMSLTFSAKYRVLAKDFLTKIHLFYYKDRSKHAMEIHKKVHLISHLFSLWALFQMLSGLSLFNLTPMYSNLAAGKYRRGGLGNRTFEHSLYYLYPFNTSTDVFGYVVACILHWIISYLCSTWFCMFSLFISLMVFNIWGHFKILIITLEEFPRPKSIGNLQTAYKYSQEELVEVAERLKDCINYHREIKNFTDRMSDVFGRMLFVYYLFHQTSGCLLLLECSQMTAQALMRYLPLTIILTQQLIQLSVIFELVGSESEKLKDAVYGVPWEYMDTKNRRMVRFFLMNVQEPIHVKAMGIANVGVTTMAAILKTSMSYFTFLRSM", "T3 sequence (A7UGE1 1-473 partner)": "T1 sequence (A7UGE1 1-473 partner)", "conditions": "agonist, main ligand; with Orco"}, "HassOR13/Orco": {"target": "T4, HassOR13/Orco (Helicoverpa assulta, UniProt A0A0B4ZYC6)", "T4 construct": "gene OR13; full ORF in pT7Ts, cRNA co-expressed with Orco in Xenopus oocytes; with Odorant receptor coreceptor", "T4 sequence (A0A0B4ZYC6 1-425)": "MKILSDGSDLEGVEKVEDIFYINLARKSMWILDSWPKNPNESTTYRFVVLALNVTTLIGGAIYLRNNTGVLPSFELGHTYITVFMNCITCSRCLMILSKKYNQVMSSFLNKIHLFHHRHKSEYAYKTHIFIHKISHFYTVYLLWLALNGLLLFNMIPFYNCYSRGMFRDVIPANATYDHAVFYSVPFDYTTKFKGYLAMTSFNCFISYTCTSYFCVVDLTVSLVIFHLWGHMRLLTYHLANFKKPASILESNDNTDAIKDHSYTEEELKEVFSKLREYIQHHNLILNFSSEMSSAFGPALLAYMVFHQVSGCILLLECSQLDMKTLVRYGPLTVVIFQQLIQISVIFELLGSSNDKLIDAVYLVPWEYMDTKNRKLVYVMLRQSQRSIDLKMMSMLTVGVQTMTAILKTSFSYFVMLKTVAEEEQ", "T4 sequence (A7UGE1 1-473 partner)": "T1 sequence (A7UGE1 1-473 partner)", "conditions": "agonist; with Orco"}}}
{"smiles": "CCCC/C=C\\CCCCCCCC=O", "note": "[Z9-14:Ald]", "values": [{"measurement": "current response", "setting": "HassOR16/Orco", "value": "HassOR13/Orco and HassOR16/Orco were narrowly tuned to Z11-16:Ald and Z9-14:Ald respectively"}, {"measurement": "inward current response", "setting": "HarmOR14b/HarmOrco", "value": "this receptor, when expressed in Xenopus oocytes, responds specifically to Z9-14:Ald"}]}
{"smiles": "CCCCCC/C=C\\CCCCCCCCO", "note": "[Z9-16:OH]", "values": [{"measurement": "current response", "setting": "HassOR6/Orco", "value": "HassOR6/Orco responded mainly to Z9-16:OH"}]}
{"smiles": "CCCC/C=C\\CCCCCCCCCC=O", "note": "[Z11-16:Ald, (Z)-11-hexadecenal]", "values": [{"measurement": "current response", "setting": "HassOR13/Orco", "value": "HassOR13/Orco and HassOR16/Orco were narrowly tuned to Z11-16:Ald and Z9-14:Ald respectively"}]}
